Laboratory results reported in patent US8563254B2, “Biomarkers of tumor pharmacodynamic response” (Novartis AG, priority 2009, dated 2013).

Key:
Type in all cases: cell-based, human
A375 cells [1] = experiment: IL-8 ELISA of A375 culture supernatants
Procedure: (§1) A malignant melanoma cell line A375 (American Type Culture Collection, Manassas, Va., USA) and gastric cancer cell line, GTL-16 (Prof Silvia Giordano, Institute for Cancer Research and Treatment, Turin, Italy) were cultured in RPMI 1640 supplemented with 10% FBS and 1% penicillin-streptomycin at 37° C. in 5% CO2 (GIBCO reagents, Invitrogen Corporation, Carlsbad, Calif., USA). Cell numbers were determined by ViCell™ XR Cell Viability Analyzer 2.03 (Beckman Coulter, Inc., Fullerton, Calif., USA). Cells were seeded in poly-D-lysine coated plates (BIOCOAT Cell Environments, Becton Dickinson Biosciences, San Jose, Calif., USA).
Human IL-8 levels in cell culture supernatants from GTL-16 and A375 cells were measured by a sandwich enzyme-linked immunosorbent assay (R&D Systems, Inc., Minneapolis, Minn., USA). Cell culture supernatants were collected from DMSO and NVP-AUY922 treated cells 16, 24, 48 and 72 hr post-treatment and stored at −20° C.
To better characterize the relationship between Hsp90 inhibitor treatment and effects on IL-8 production, GTL-16 and A375 cells were washed and treated for 24 hr with fresh medium containing various concentrations of NVP-AUY922. For this length of treatment time, maximal inhibition of IL-8 accumulation appears to be reached at 0.3 μM as measured by enzyme-linked immunosorbent assay; this equates to 80% and 60% reductions in GTL-16 and A375 cultures, respectively (FIGS. 2A, B).

GTL-16 cells = experiment: Western blot of nuclear protein fractions, GTL-16; conditions: GTL-16, 0.3 μM, 16 hr and 24 hr, normalized to total protein
Procedure: Total protein lysates were prepared from the GTL-16 and A375 cells with RIPA lysis buffer (Upstate, Millipore Corporation, Charlottesville, Va., USA). Cells were washed with PBS and 500 ul of ice-cold RIPA buffer, containing protease inhibitor cocktail tablet (Roche Diagnostic GmbH, Mannheim, Germany) and phosphatase inhibitors (Sigma-Aldrich, Inc., St. Louis, Mo., USA), was added to each plate on ice. After 15 min the cells were scrapped from the plate surface and spun at 16000 RPM for 10 min at 4° C. The supernatant was collected and frozen at −80° C. Nuclear protein fractions were prepared by the NE-PER nuclear and cytoplasmic extraction kit (Pierce Biotechnology, Rockford, Ill., USA). Proteins were quantified by bicinchoninic acid assay (Pierce Biotechnology, Rockford, Ill., USA) for Western blotting.
Primary antibodies specific for NFκB p65, cREL, p-ERK1/2, p-c-jun, ERK1 and Jun were purchased from Santa Cruz Biotechnology (Santa Cruz Biotechnology, Inc., Santa Cruz, Calif., USA) with the exception of Hsp70 and TBP (nuclear loading control), which were obtained from StressGen (StressGen, Assay Designs, Inc., Aim Arbor, Mich., USA) and Abcam (Abcam Inc., Cambridge, Mass., USA), respectively. […]

A375 cells [2] = experiment: Multiplexed bead-based 27-plex cytokine panel, A375 culture supernatants; conditions: 48 hr
Procedure: as §1
Human IL-8 levels in cell culture supernatants treated with NVP-AUY922 were initially assessed as part of a multiplexed bead-based cytokine panel (hu 27-plex panel I, Bio-rad Laboratories, Hercules, Calif., USA) with a BioPlex Suspension Array System (Bio-rad). Human IL-8 and mouse KC levels in serum derived from GTL-16 and A375 tumor-bearing mice treated with NVP-AUY922 were measured by single-plex cytokine bead-based assay (Milliplex, Millipore, Billerica, Mass., USA). The BioPlex system uses a liquid suspension array of beads. The beads align in a single file through a flow cell to the detector, where a red classification laser at a wavelength of 635 nm and a green reporter laser at a wavelength of 532 nm are used to identify each bead's spectral address and associated reporter signal, respectively.
In a screen for candidate secreted markers of Hsp90 inhibition, cell culture supernatants were collected from GTL-16 gastric carcinoma and A375 melanoma cells that were washed and treated for 48 hr with 1 μM NVP-AUY922 in fresh culture medium. These samples were analyzed by a multiplexed cytokine bead-based assay that included a panel of 27 human cytokines, the results of which are shown in FIG. 1. […] In addition to this empirical investigation using the bead-based immunoassay panel, in silica data mining was undertaken to identify secreted proteins that were regulated by previously reported Hsp90 client proteins; this investigation pointed to a number of candidates, including IL-8, consistent with the empirical results.

Question: How did the “time within which IL-8 production dramatically declines” value (A375 cells [1]; A375, 0.3 μM) turn out when CCNC(=O)c1noc(-c2cc(C(C)C)c(O)cc2O)c1-c1ccc(CN2CCOCC2)cc1 [NVP-AUY922, 5-(2,4-Dihydroxy-5-isopropyl-phenyl)-4-(4-morhpolin-4-ylmethyl-phenyl)-isoxazole-3-carboxylic acid ethylamide] was run?
Answer: Its value is at most 16 h.

Question: And the “concentration at which maximal inhibition of IL-8 accumulation is reached” value (A375 cells [1]; A375, 24 hr treatment)?
Answer: The value was 0.3 µM.

Question: And the inhibition at 0.3 µM (A375 cells [1]; Homo sapiens, A-375, A375, 0.3 μM, 24 hr, ELISA, read-out: reduction of IL-8 accumulation (maximal inhibition))?
Answer: Its inhibition at 0.3 µM is 60%.

Question: And the “change in nuclear NFκB p65 levels” value (GTL-16 cells)?
Answer: Its value is −26%.

Question: And the “decrease in nuclear phospho-c-Jun levels” value (GTL-16 cells)?
Answer: The value was about 83%.

Question: And the IL-2 levels (A375 cells [2]; A375, 1 μM)?
Answer: Its IL-2 levels is “increased”.

Question: And the “accumulation of IL-1ra, IL-8, MCP-1 (MCAF) and VEGF” value (A375 cells [2]; A375, 1 μM)?
Answer: The value was “decreased accumulation”.

Question: What about the “accumulation of other detectable cytokines” value (A375 cells [2]; A375, 1 μM) of the same compound?
Answer: Its value is “remained unchanged”.

Question: And the IL-8 accumulation decreased (A375 cells [2]; A375 culture supernatant, 1 μM, multiplexed assay)?
Answer: Its IL-8 accumulation decreased is over 70%.
